# Data from patent publication US20220194935A1, “PHENETHYL SUBSTITUTED IMIDAZO[4,5-C]QUINOLINE COMPOUNDS WITH AN N-1 BRANCHED GROUP” (3M INNOVATIVE PROPERTIES COMPANY, priority 2019, published 2022).
# Molecular target: T1, human TLR7 (Homo sapiens, UniProt Q9NYK1)
# T1 construct: host or cells: HEK293 (HEK-BLUE-hTLR7)
# T1 sequence (Q9NYK1 27-1049): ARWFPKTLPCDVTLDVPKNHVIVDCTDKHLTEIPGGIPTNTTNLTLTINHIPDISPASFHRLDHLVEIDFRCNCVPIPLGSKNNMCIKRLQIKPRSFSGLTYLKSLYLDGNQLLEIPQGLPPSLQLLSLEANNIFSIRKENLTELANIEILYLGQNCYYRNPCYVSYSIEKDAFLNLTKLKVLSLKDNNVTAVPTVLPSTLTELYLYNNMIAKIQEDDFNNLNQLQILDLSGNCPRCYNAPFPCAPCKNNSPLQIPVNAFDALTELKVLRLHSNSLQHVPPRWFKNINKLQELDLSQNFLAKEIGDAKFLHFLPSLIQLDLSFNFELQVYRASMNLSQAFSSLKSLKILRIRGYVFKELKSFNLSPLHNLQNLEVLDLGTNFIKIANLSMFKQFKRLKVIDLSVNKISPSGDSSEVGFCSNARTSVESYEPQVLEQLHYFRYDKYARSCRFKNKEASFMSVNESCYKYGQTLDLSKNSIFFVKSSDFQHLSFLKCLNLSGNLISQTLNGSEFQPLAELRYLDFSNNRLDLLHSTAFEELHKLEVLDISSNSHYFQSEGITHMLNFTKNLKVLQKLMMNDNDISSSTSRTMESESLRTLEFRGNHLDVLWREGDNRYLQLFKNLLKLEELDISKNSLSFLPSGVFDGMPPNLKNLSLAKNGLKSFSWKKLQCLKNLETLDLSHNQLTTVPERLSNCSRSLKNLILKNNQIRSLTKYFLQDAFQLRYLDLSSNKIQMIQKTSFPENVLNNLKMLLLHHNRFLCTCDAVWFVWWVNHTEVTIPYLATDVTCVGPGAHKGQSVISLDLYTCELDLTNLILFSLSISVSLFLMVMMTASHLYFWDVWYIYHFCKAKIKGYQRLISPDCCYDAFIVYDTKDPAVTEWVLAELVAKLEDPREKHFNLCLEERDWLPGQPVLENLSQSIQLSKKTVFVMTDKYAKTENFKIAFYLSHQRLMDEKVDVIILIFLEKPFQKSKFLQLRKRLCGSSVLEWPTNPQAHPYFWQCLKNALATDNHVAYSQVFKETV
# Test: TLR Activation and Specificity, HEK-BLUE-hTLR7 SEAP reporter cells
# Assay type: cell-based
# Settings: 16-20 hours, at least 2× vehicle control, tested 0.01-30 micromolar
# Method: HEK-BLUE-hTLR7 or hTLR8 reporter cells were obtained from InvivoGen, San Diego, Calif. According to the manufacturer's description, these reporter cells were prepared by co-transfection of HEK293 cells with an inducible secreted embryonic alkaline phosphatase (SEAP) reporter gene and either the human TLR7 or TLR8 gene. The SEAP reporter gene was placed under the control of an IFN-β minimal promoter fused to five NF-κB and AP-1-binding sites. In the presence of a TLR ligand, activation of NF-κB and AP-1 occurs, resulting in a corresponding increase in SEAP levels.
# In the assay, the HEK cells were grown and maintained using standard cell culture techniques in a growth medium that contained Dulbecco's Modified Eagle Medium (ThermoFisher Scientific Incorporated, Waltham, Mass.) supplemented with 1% penicillin/streptomycin and 10% heat-inactivated Gibco fetal bovine serum (ThermoFisher Scientific). Each compound was solubilized in DMSO to create a 3 millimole (mM) stock solution. The stock solution was then further diluted with the growth medium to prepare serial dilutions. Each test compound was tested at a concentration of 30, 10, 3.3, 1.1, 0.37, 0.12, 0.04, and 0.01 micromolar using a 96-well format with 5×10^4 cells and 200 microliters of growth medium per well.
# For each compound, hTLR7, hTLR8, and their respective null control HEK cells were screened. DMSO serially diluted into the growth medium served as the vehicle control. Cell culture supernatants containing the SEAP reporter were collected after an incubation period of 16-20 hours in a cell culture incubator (37° C. and 5% CO2), and either analyzed immediately or stored at −80° C. SEAP levels were measured using the colorimetric enzyme assay (QUANTI-BLUE (InvivoGen) according to manufacturer's instructions.
# Specifically, the minimum effective concentration of each compound (micromolar) was determined as the lowest concentration of the compound that produced a SEAP expression response at least 2× greater than that observed with the vehicle control wells.
row,SMILES,"MEC to Produce TLR Activation, TLR 7 [µM]"
1,"COC[C@@H](Cc1ccccc1)n1cnc2c(N)nc3ccccc3c21 [Example 3, 1-[(1R)-1-benzyl-2-methoxy-ethyl]imidazo[4,5-c]quinolin-4-amine]",1.1
2,"CCCC[C@H](Cc1ccccc1)n1cnc2c(N)nc3ccccc3c21 [Example 2, 1-[(1R)-1-benzylpentyl]imidazo[4,5-c]quinolin-4-amine]",≤0.01
3,"CCOC[C@H](Cc1ccccc1)n1cnc2c(N)nc3ccccc3c21 [Example 6, 1-[(1S)-1-benzyl-2-ethoxy-ethyl]imidazo[4,5-c]quinolin-4-amine]",≤0.01
4,"CCCCOc1ccc(C[C@@H](CCCC)n2cnc3c(N)nc4ccccc4c32)cc1 [Example 7, 1-[(1R)-1-[(4-butoxyphenyl)methyl]pentyl]imidazo[4,5-c]quinolin-4-amine]",≤0.01
5,"COC[C@H](Cc1ccccc1)n1cnc2c(N)nc3ccccc3c21 [Example 5, 1-[(1S)-1-benzyl-2-methoxy-ethyl]imidazo[4,5-c]quinolin-4-amine]",≤0.01
6,"C[C@H](Cc1ccccc1)n1cnc2c(N)nc3ccccc3c21 [Example 1, 1-[(1R)-1-methyl-2-phenyl-ethyl]imidazo[4,5-c]quinolin-4-amine]",0.37
7,"Nc1nc2ccccc2c2c1ncn2CCc1ccccc1 [Comparative Example 1, 1-phenethyl-1H-imidazo[4,5-c]quinolin-4-amine, reference compound]",1.1
8,"CCOC[C@@H](Cc1ccccc1)n1cnc2c(N)nc3ccccc3c21 [Example 4, 1-[(1R)-1-benzyl-2-ethoxy-ethyl]imidazo[4,5-c]quinolin-4-amine]",1.1
